SMILES strings stand for the structures.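 48-hour exposure; five concentrations; linearly interpolated endpoints. TGI marks complete inhibition of growth.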

The subject of the first assay is SF-295 CNS. Nature of the assay: growth of human tumour cells (NCI), 48 h.
`O=C1CC(c2ccco2)C2(C(=O)NC(=O)NC2=O)C(c2ccco2)C1` (stereo not given) yielded a TGI above 75 µM.

Another assay has as its system OVCAR-8 ovarian. In words: growth of human tumour cells (NCI), 48 h.
Molecule `O=C1CC(=O)N(c2ccccc2)N1/C(=C/c1ccccc1)c1ccccc1` registered a TGI of 45.3 µM.

`CC(C)(C)OC(=O)NCCCCC(NC(=O)OCc1ccccc1)C(N)=O` (stereo not given) came in with a TGI above 100 µM.

Molecule `Cc1ccc(S(=O)(=O)N2CCN3C(=O)c4ccccc4C32c2ccc(F)cc2)cc1` (stereo not given) displayed a TGI above 100 µM.

In turn, `O=C1CC(c2ccco2)C2(C(=O)NC(=O)NC2=O)C(c2ccco2)C1` (stereo not given) showed a TGI above 75 µM.

A further assay deals with EKVX NSCLC. Nature of the assay: growth of human tumour cells (NCI), 48 h.
As for `O=C1CC(=O)N(c2ccccc2)N1/C(=C/c1ccccc1)c1ccccc1`, the TGI was above 100 µM.

`CC(C)(C)OC(=O)NCCCCC(NC(=O)OCc1ccccc1)C(N)=O` (stereo not given) came in with a TGI above 100 µM.

On to `Cc1ccc(S(=O)(=O)N2CCN3C(=O)c4ccccc4C32c2ccc(F)cc2)cc1` (stereo not given), for which the TGI is above 100 µM.

In turn, `O=C1CC(c2ccco2)C2(C(=O)NC(=O)NC2=O)C(c2ccco2)C1` (stereo not given) returned a TGI above 75 µM.

The test system of another assay is COLO 205 colon. Nature of the assay: growth of human tumour cells (NCI), 48 h.
The molecule `O=C1CC(=O)N(c2ccccc2)N1/C(=C/c1ccccc1)c1ccccc1` had a TGI of 36.6 µM.

The molecule `CC(C)(C)OC(=O)NCCCCC(NC(=O)OCc1ccccc1)C(N)=O` (stereo not given) had a TGI above 100 µM.

`Cc1ccc(S(=O)(=O)N2CCN3C(=O)c4ccccc4C32c2ccc(F)cc2)cc1` (stereo not given) yielded a TGI above 100 µM.

Regarding `O=C1CC(c2ccco2)C2(C(=O)NC(=O)NC2=O)C(c2ccco2)C1` (stereo not given), the TGI is above 75 µM.

The subject of a further assay is NCI-H23 lung. Nature of the assay: growth of human tumour cells (NCI), 48 h.
The molecule `O=C1CC(=O)N(c2ccccc2)N1/C(=C/c1ccccc1)c1ccccc1` returned a TGI of 65.4 µM.

As to `CC(C)(C)OC(=O)NCCCCC(NC(=O)OCc1ccccc1)C(N)=O` (stereo not given), the TGI was above 100 µM.

Molecule `Cc1ccc(S(=O)(=O)N2CCN3C(=O)c4ccccc4C32c2ccc(F)cc2)cc1` (stereo not given) showed a TGI above 100 µM.

`O=C1CC(c2ccco2)C2(C(=O)NC(=O)NC2=O)C(c2ccco2)C1` (stereo not given) displayed a TGI above 75 µM.

For the next assay, the system named is SNB-19 CNS. In words: growth of human tumour cells (NCI), 48 h.
The molecule `O=C1CC(=O)N(c2ccccc2)N1/C(=C/c1ccccc1)c1ccccc1` displayed a TGI of 43.6 µM.

The molecule `CC(C)(C)OC(=O)NCCCCC(NC(=O)OCc1ccccc1)C(N)=O` (stereo not given) gave a TGI above 100 µM.

Molecule `Cc1ccc(S(=O)(=O)N2CCN3C(=O)c4ccccc4C32c2ccc(F)cc2)cc1` (stereo not given) had a TGI above 100 µM.

In turn, `O=C1CC(c2ccco2)C2(C(=O)NC(=O)NC2=O)C(c2ccco2)C1` (stereo not given) had a TGI above 75 µM.

In the next assay the test system is OVCAR-3 ovarian. In words: growth of human tumour cells (NCI), 48 h.
In turn, `O=C1CC(=O)N(c2ccccc2)N1/C(=C/c1ccccc1)c1ccccc1` registered a TGI of 57.1 µM.

Turning to `CC(C)(C)OC(=O)NCCCCC(NC(=O)OCc1ccccc1)C(N)=O` (stereo not given), the TGI is above 100 µM.

`Cc1ccc(S(=O)(=O)N2CCN3C(=O)c4ccccc4C32c2ccc(F)cc2)cc1` (stereo not given) showed a TGI above 100 µM.

Molecule `O=C1CC(c2ccco2)C2(C(=O)NC(=O)NC2=O)C(c2ccco2)C1` (stereo not given) displayed a TGI above 75 µM.

The subject of a further assay is MOLT-4 leukemia. Nature of the assay: growth of human tumour cells (NCI), 48 h.
Molecule `O=C1CC(=O)N(c2ccccc2)N1/C(=C/c1ccccc1)c1ccccc1` returned a TGI of 6.54 µM.

The molecule `CC(C)(C)OC(=O)NCCCCC(NC(=O)OCc1ccccc1)C(N)=O` (stereo not given) returned a TGI above 100 µM.

`Cc1ccc(S(=O)(=O)N2CCN3C(=O)c4ccccc4C32c2ccc(F)cc2)cc1` (stereo not given) had a TGI of 65.9 µM.

The molecule `O=C1CC(c2ccco2)C2(C(=O)NC(=O)NC2=O)C(c2ccco2)C1` (stereo not given) returned a TGI above 75 µM.

A further assay relates to OVCAR-5 ovarian. Nature of the assay: growth of human tumour cells (NCI), 48 h.
`O=C1CC(=O)N(c2ccccc2)N1/C(=C/c1ccccc1)c1ccccc1` yielded a TGI above 100 µM.

In the case of `CC(C)(C)OC(=O)NCCCCC(NC(=O)OCc1ccccc1)C(N)=O` (stereo not given), the TGI is above 100 µM.

In turn, `Cc1ccc(S(=O)(=O)N2CCN3C(=O)c4ccccc4C32c2ccc(F)cc2)cc1` (stereo not given) displayed a TGI above 100 µM.

Molecule `O=C1CC(c2ccco2)C2(C(=O)NC(=O)NC2=O)C(c2ccco2)C1` (stereo not given) displayed a TGI above 75 µM.

The next assay concerns HOP-92 NSCLC. In words: growth of human tumour cells (NCI), 48 h.
`O=C1CC(=O)N(c2ccccc2)N1/C(=C/c1ccccc1)c1ccccc1` registered a TGI of 31.3 µM.

The subject of another assay is NCI-H522 lung. Nature of the assay: growth of human tumour cells (NCI), 48 h.
Regarding `CC(C)(C)OC(=O)NCCCCC(NC(=O)OCc1ccccc1)C(N)=O` (stereo not given), the TGI was above 100 µM.

As for `Cc1ccc(S(=O)(=O)N2CCN3C(=O)c4ccccc4C32c2ccc(F)cc2)cc1` (stereo not given), the TGI was above 100 µM.

In turn, `O=C1CC(c2ccco2)C2(C(=O)NC(=O)NC2=O)C(c2ccco2)C1` (stereo not given) returned a TGI above 75 µM.

A further assay has as its system DU-145 prostate. Nature of the assay: growth of human tumour cells (NCI), 48 h.
The molecule `O=C1CC(=O)N(c2ccccc2)N1/C(=C/c1ccccc1)c1ccccc1` gave a TGI of 82.6 µM.

`CC(C)(C)OC(=O)NCCCCC(NC(=O)OCc1ccccc1)C(N)=O` (stereo not given) showed a TGI above 100 µM.

In turn, `Cc1ccc(S(=O)(=O)N2CCN3C(=O)c4ccccc4C32c2ccc(F)cc2)cc1` (stereo not given) registered a TGI above 100 µM.

With `O=C1CC(c2ccco2)C2(C(=O)NC(=O)NC2=O)C(c2ccco2)C1` (stereo not given), the TGI was above 75 µM.

Another assay concerns SW-620 colon. In words: growth of human tumour cells (NCI), 48 h.
The molecule `O=C1CC(=O)N(c2ccccc2)N1/C(=C/c1ccccc1)c1ccccc1` had a TGI of 37.7 µM.

Regarding `CC(C)(C)OC(=O)NCCCCC(NC(=O)OCc1ccccc1)C(N)=O` (stereo not given), the TGI was above 100 µM.

`Cc1ccc(S(=O)(=O)N2CCN3C(=O)c4ccccc4C32c2ccc(F)cc2)cc1` (stereo not given) yielded a TGI above 100 µM.

For the molecule `O=C1CC(c2ccco2)C2(C(=O)NC(=O)NC2=O)C(c2ccco2)C1` (stereo not given), the TGI is above 75 µM.

The test system of a further assay is HCT-15 colon. Nature of the assay: growth of human tumour cells (NCI), 48 h.
The molecule `CC(C)(C)OC(=O)NCCCCC(NC(=O)OCc1ccccc1)C(N)=O` (stereo not given) gave a TGI above 100 µM.

Regarding `Cc1ccc(S(=O)(=O)N2CCN3C(=O)c4ccccc4C32c2ccc(F)cc2)cc1` (stereo not given), the TGI is above 100 µM.

In the case of `O=C1CC(c2ccco2)C2(C(=O)NC(=O)NC2=O)C(c2ccco2)C1` (stereo not given), the TGI was above 75 µM.

The subject of a further assay is HS 578T breast. Nature of the assay: growth of human tumour cells (NCI), 48 h.
Turning to `O=C1CC(=O)N(c2ccccc2)N1/C(=C/c1ccccc1)c1ccccc1`, the TGI is 45.4 µM.

`CC(C)(C)OC(=O)NCCCCC(NC(=O)OCc1ccccc1)C(N)=O` (stereo not given) came in with a TGI above 100 µM.

`Cc1ccc(S(=O)(=O)N2CCN3C(=O)c4ccccc4C32c2ccc(F)cc2)cc1` (stereo not given) had a TGI above 100 µM.

As for `O=C1CC(c2ccco2)C2(C(=O)NC(=O)NC2=O)C(c2ccco2)C1` (stereo not given), the TGI was above 75 µM.

The subject of a further assay is SF-539 CNS. Nature of the assay: growth of human tumour cells (NCI), 48 h.
`CC(C)(C)OC(=O)NCCCCC(NC(=O)OCc1ccccc1)C(N)=O` (stereo not given) showed a TGI above 100 µM.

In turn, `O=C1CC(c2ccco2)C2(C(=O)NC(=O)NC2=O)C(c2ccco2)C1` (stereo not given) showed a TGI above 75 µM.

A further assay has as its system A549 NSCLC. Nature of the assay: growth of human tumour cells (NCI), 48 h.
Molecule `O=C1CC(=O)N(c2ccccc2)N1/C(=C/c1ccccc1)c1ccccc1` gave a TGI above 100 µM.

These data come from PubChem BioAssay (NCI).
